Legend:
Type in all cases: functional
NCI-H460 = experiment: Anticancer activity against human NCL-H460 cells assessed as growth at 100 uM after 48 hrs by SRB protein assay relative to control; settings: NCI-H460, 48 h, read-out: Activity
MCF7 = experiment: Anticancer activity against human MCF7 cells assessed as growth at 100 uM after 48 hrs by SRB protein assay relative to control; settings: MCF7, 48 h, read-out: Activity
SF-268 = experiment: Anticancer activity against human SF268 cells assessed as growth at 100 uM after 48 hrs by SRB protein assay relative to control; settings: SF-268, 48 h, read-out: Activity

| SMILES | growth at 100 µM (NCI-H460) [%] | growth at 100 µM (MCF7) [%] | growth at 100 µM (SF-268) [%] |
| --- | --- | --- | --- |
| Clc1ncnc2c1ncn2Cc1ccccc1Cn1cnc2c(Cl)ncnc21 | 58 | 78 | 78 |
| Clc1ncnc2c1ncn2Cc1cccc(Cn2cnc3c(Cl)ncnc32)c1 | 65 | 77 | 90 |
| Nc1ncnc2c1ncn2Cc1cccc(Cn2cnc3c(N)ncnc32)c1 | 96 | 109 | 108 |
| Clc1ncnc2c1ncn2Cc1ccc(Cn2cnc3c(Cl)ncnc32)cc1 | 95 | 101 | 86 |
| Nc1ncnc2c1ncn2Cc1ccc(Cn2cnc3c(N)ncnc32)cc1 | 111 | 112 | 96 |
| Clc1ncnc2c1ncn2Cc1ccc(-c2ccc(Cn3cnc4c(Cl)ncnc43)cc2)cc1 | 45 | 67 | 95 |
| Nc1ncnc2c1ncn2Cc1ccc(-c2ccc(Cn3cnc4c(N)ncnc43)cc2)cc1 | 98 | 86 | 50 |
| Nc1ncnc2c1ncn2Cc1ccccc1Cn1cnc2c(N)ncnc21 | 84 | 99 | 99 |

From ChEMBL document CHEMBL1143809, “New bis-N9-(methylphenylmethyl)purine derivatives: synthesis and antitumor activity” (2007)
